How the values were obtained:
[1] = target: PIM (PIM-1, PIM-2, and/or PIM-3); experiment: PIM-1, PIM-2 and PIM-3 inhibition, biochemical chemiluminescence assays (Kinase Glo, IC50 determination); conditions: Table 1 activity class; PIM refers to PIM-1, PIM-2, and/or PIM-3; read-out: PIM IC50 (Activity B)
CK2 = CK2 (Homo sapiens, UniProt P68400); experiment: CK2 inhibition, biochemical chemiluminescence holoenzyme assay (Kinase Glo, IC50 determination); conditions: Table 1 activity class; symbol given only if active; read-out: CK2 IC50 (Activity C)
Chain of CK2 (P68400 whole entry): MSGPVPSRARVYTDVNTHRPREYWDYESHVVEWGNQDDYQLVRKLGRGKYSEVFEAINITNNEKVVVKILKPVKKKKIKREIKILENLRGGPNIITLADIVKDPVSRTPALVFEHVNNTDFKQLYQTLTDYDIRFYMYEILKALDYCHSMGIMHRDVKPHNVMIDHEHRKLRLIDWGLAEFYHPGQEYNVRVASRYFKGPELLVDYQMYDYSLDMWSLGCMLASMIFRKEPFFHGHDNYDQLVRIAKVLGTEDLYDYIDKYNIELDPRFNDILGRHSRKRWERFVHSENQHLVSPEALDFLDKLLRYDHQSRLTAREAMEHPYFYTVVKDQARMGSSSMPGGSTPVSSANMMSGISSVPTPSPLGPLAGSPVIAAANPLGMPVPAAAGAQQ
Chain of CK2 (P67870 whole entry partner): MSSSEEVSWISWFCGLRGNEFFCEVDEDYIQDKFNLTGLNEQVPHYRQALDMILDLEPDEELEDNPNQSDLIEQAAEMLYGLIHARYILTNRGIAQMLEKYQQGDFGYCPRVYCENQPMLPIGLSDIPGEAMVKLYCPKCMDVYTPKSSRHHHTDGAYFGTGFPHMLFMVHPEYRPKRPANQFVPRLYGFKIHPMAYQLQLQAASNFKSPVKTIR
Protocol: Characterization of CK2 Inhibition in a Biochemical Chemiluminesence Assay (IC50 Determination):
The IC50 evaluation of compounds against CK2 was performed in a Chemiluminesence Holoenzyme assay utilizing a Greiner 384-well white medium binding white plate format. […] The assay procedure involves the compound dilution scheme followed by addition of 10 μL of the substrate twice, followed by 10 μL twice of the respective enzyme or buffer to the designated well plates and subsequent pre-incubation of the compounds. Following an incubation period of 150 minutes at ambient temperature (24-27° C.), 10 μL of Kinase Glo (Promega) was added. The luminescence was measured following a Luminescence Protocol on a Victor plate reader.

| SMILES | IC50 [1] | IC50 (CK2) |
| --- | --- | --- |
| O=c1[nH]c(CN2CCC(N3CCOCC3)CC2)nc2c1oc1ccc(Br)cc12 [Compound 257, 8-bromo-2-[(4-morpholin-4-ylpiperidin-1-yl)methyl][1]benzofuro[3,2-d]pyrimidin-4(3H)-one] | < 10 µM | < 10 µM |
| O=c1[nH]c(CN2CC[C@H](O)C2)nc2c1oc1ccc(OCc3ccccc3)cc12 [Compound 475, 2-{[(3S)-3-hydroxypyrrolidin-1-yl]methyl}-8-[(phenylmethyl)oxy][1]benzofuro[3,2-d]pyrimidin-4(3H)-one] | < 10 µM | < 10 µM |
| CN1CCC(CNc2ccc(-c3nc4c(oc5ccc(Br)cc54)c(=O)[nH]3)c(Cl)c2)CC1 [Compound 163, 8-bromo-2-(2-chloro-4-{[(1-methylpiperidin-4-yl)methyl]amino}phenyl)[1]benzofuro[3,2-d]pyrimidin-4(3H)-one] | < 10 µM | < 10 µM |
| O=c1[nH]c(-c2cccs2)nc2c1oc1ccc(Br)cc12 [Compound 59, 8-bromo-2-(2-thienyl)[1]benzofuro[3,2-d]pyrimidin-4(3H)-one] | < 10 µM | < 10 µM |
| NCCN1CCC(Cc2nc3c(oc4ccc(Br)cc43)c(=O)[nH]2)CC1 [Compound 168, 2-{[1-(2-aminoethyl)piperidin-4-yl]methyl}-8-bromo[1]benzofuro[3,2-d]pyrimidin-4(3H)-one] | < 10 µM | < 10 µM |
| O=c1[nH]c(CNc2ccccc2F)nc2c1oc1ccc(Br)cc12 [Compound 19, 8-bromo-2-{[(2-fluorophenyl)amino]methyl}[1]benzofuro[3,2-d]pyrimidin-4(3H)-one] | < 10 µM | < 10 µM |
| O=C(Nc1ccc(-c2nc3c(oc4ccc(Br)cc43)c(=O)[nH]2)c(Cl)c1)c1cccc(Cl)c1 [Compound 280, N-[4-(8-bromo-4-oxo-3,4-dihydro[1]benzofuro[3,2-d]pyrimidin-2-yl)-3-chlorophenyl]-3-chlorobenzamide] | < 10 µM | < 10 µM |
| CN(C)CCC(=O)N1CCC(c2nc3c(oc4ccc(Br)cc43)c(=O)[nH]2)CC1 [Compound 206, 8-bromo-2-[1-(N,N-dimethyl-beta-alanyl)piperidin-4-yl][1]benzofuro[3,2-d]pyrimidin-4(3H)-one] | < 10 µM | < 10 µM |
| O=c1[nH]c(N2CCCC2)nc2c1oc1ccc(Br)cc12 [Compound 196, 8-bromo-2-pyrrolidin-1-yl[1]benzofuro[3,2-d]pyrimidin-4(3H)-one] | < 10 µM | < 10 µM |
| CN1CCN(c2ccc(COCc3nc4c(oc5ccc(Br)cc54)c(=O)[nH]3)cc2)CC1 [Compound 102, 8-bromo-2-[({[4-(4-methylpiperazin-1-yl)phenyl]methyl}oxy)methyl][1]benzofuro[3,2-d]pyrimidin-4(3H)-one] | < 10 µM | < 10 µM |
| COC(=O)c1ccc(-c2nc3c(oc4ccc(Br)cc43)c(=O)[nH]2)c(Cl)c1 [Compound 146, methyl 4-(8-bromo-4-oxo-3,4-dihydro[1]benzofuro[3,2-d]pyrimidin-2-yl)-3-chlorobenzoate] | < 10 µM | < 10 µM |
| CC(=O)N1CCN(Cc2nc3c(oc4ccc(Br)cc43)c(=O)[nH]2)CC1 [Compound 187, 2-[(4-acetylpiperazin-1-yl)methyl]-8-bromo[1]benzofuro[3,2-d]pyrimidin-4(3H)-one] | < 10 µM | < 10 µM |
| O=C(Nc1ccc(Cl)c(-c2nc3c(oc4ccc(Br)cc43)c(=O)[nH]2)c1)c1ccnc(Cl)c1 [Compound 326, N-[3-(8-bromo-4-oxo-3,4-dihydro[1]benzofuro[3,2-d]pyrimidin-2-yl)-4-chlorophenyl]-2-chloropyridine-4-carboxamide] | < 10 µM | < 10 µM |
| O=C(NCc1ccccc1)c1cccc(-c2nc3c(oc4ccc(Br)cc43)c(=O)[nH]2)c1 [Compound 99, 3-(8-bromo-4-oxo-3,4-dihydro[1]benzofuro[3,2-d]pyrimidin-2-yl)-N-(phenylmethyl)benzamide] | < 10 µM | < 10 µM |
| O=C(c1ccccc1)N1CCC(c2nc3c(oc4ccc(Br)cc43)c(=O)[nH]2)CC1 [Compound 234, 8-bromo-2-[1-(phenylcarbonyl)piperidin-4-yl][1]benzofuro[3,2-d]pyrimidin-4(3H)-one] | < 10 µM | < 10 µM |
| O=c1[nH]c(Cn2ccnc2)nc2c1oc1ccc(Br)cc12 [Compound 6, 8-bromo-2-(1H-imidazol-1-ylmethyl)[1]benzofuro[3,2-d]pyrimidin-4(3H)-one] | < 10 µM | < 10 µM |
| O=C(Nc1ccc(-c2nc3c(oc4ccc(Br)cc43)c(=O)[nH]2)c(Cl)c1)c1ccc(-n2cccn2)nc1 [Compound 396, N-[4-(8-bromo-4-oxo-3,4-dihydro[1]benzofuro[3,2-d]pyrimidin-2-yl)-3-chlorophenyl]-6-(1H-pyrazol-1-yl)pyridine-3-carboxamide] | < 10 µM | < 10 µM |

| SMILES | IC50 [1] | IC50 (CK2) |
| --- | --- | --- |
| O=c1[nH]c(-c2cccc(Cl)c2)nc2c1oc1ccc(Br)cc12 [Compound 93, 8-Bromo-2-(3-chlorophenyl)[1]benzofuro[3,2-d]pyrimidin-4(3H)-one] | < 10 µM | < 10 µM |
| O=c1[nH]c(CN2CCC(c3ccccc3)CC2)nc2c1oc1ccc(Br)cc12 [Compound 238, 8-bromo-2-[(4-phenylpiperidin-1-yl)methyl][1]benzofuro[3,2-d]pyrimidin-4(3H)-one] | < 10 µM | < 10 µM |
| O=C(Nc1ccc(-c2nc3c(oc4ccc(Br)cc43)c(=O)[nH]2)c(Cl)c1)c1cccnc1 [Compound 292, N-[4-(8-bromo-4-oxo-3,4-dihydro[1]benzofuro[3,2-d]pyrimidin-2-yl)-3-chlorophenyl]pyridine-3-carboxamide] | < 10 µM | < 10 µM |
| O=C(Nc1ccc(-c2nc3c(oc4ccc(Br)cc43)c(=O)[nH]2)c(Cl)c1)c1ccccc1 [Compound 249, N-[4-(8-bromo-4-oxo-3,4-dihydro[1]benzofuro[3,2-d]pyrimidin-2-yl)-3-chlorophenyl]benzamide] | < 10 µM | < 10 µM |
| NCc1nc(-c2nc3c(oc4ccc(Br)cc43)c(=O)[nH]2)cs1 [Compound 352, 2-[2-(Aminomethyl)-1,3-thiazol-4-yl]-8-bromo[1]benzofuro[3,2-d]pyrimidin-4(3H)-one] | < 10 µM | < 10 µM |
| O=C(NCc1ccc(Cl)cc1)C1CCN(Cc2nc3c(oc4ccc(Br)cc43)c(=O)[nH]2)C1 (stereo not drawn) [Compound 271, 1-[(8-bromo-4-oxo-3,4-dihydro[1]benzofuro[3,2-d]pyrimidin-2-yl)methyl]-N-[(4-chlorophenyl)methyl]pyrrolidine-3-carboxamide] | < 10 µM | < 10 µM |
| COc1ccc(CNCc2nc3c(oc4ccc(Br)cc43)c(=O)[nH]2)cc1 [Compound 261, 8-bromo-2-[({[4-(methyloxy)phenyl]methyl}amino)methyl][1]benzofuro[3,2-d]pyrimidin-4(3H)-one] | < 10 µM | < 10 µM |
| COc1ccc(C(=O)Nc2ccc(-c3nc4c(oc5ccc(Br)cc54)c(=O)[nH]3)c(Cl)c2)cc1 [Compound 285, N-[4-(8-bromo-4-oxo-3,4-dihydro[1]benzofuro[3,2-d]pyrimidin-2-yl)-3-chlorophenyl]-4-(methyloxy)benzamide] | < 10 µM | < 10 µM |
| COc1ccc(CCNc2ccc3oc4c(=O)[nH]c(CN5CC[C@H](O)C5)nc4c3c2)cc1OC [Compound 474, 8-({2-[3,4-bis(methyloxy)phenyl]ethyl}amino)-2-{[(3S)-3-hydroxypyrrolidin-1-yl]methyl}[1]benzofuro[3,2-d]pyrimidin-4(3H)-one] | < 10 µM | < 10 µM |
| O=C(Nc1ccc(-c2nc3c(oc4ccc(Br)cc43)c(=O)[nH]2)c(Cl)c1)c1cnc2ccccc2n1 [Compound 397, N-[4-(8-bromo-4-oxo-3,4-dihydro[1]benzofuro[3,2-d]pyrimidin-2-yl)-3-chlorophenyl]quinoxaline-2-carboxamide] | < 10 µM | < 10 µM |
| O=C(Nc1ccc(Cl)c(-c2nc3c(oc4ccc(Br)cc43)c(=O)[nH]2)c1)c1ccno1 [Compound 372, N-[3-(8-bromo-4-oxo-3,4-dihydro[1]benzofuro[3,2-d]pyrimidin-2-yl)-4-chlorophenyl]isoxazole-5-carboxamide] | < 10 µM | < 10 µM |
| O=c1[nH]c(CN2CC[C@H](O)C2)nc2c1oc1ccc(CCCCCCO)cc12 [Compound 457, 8-(6-hydroxyhexyl)-2-{[(3S)-3-hydroxypyrrolidin-1-yl]methyl}[1]benzofuro[3,2-d]pyrimidin-4(3H)-one] | < 10 µM | < 10 µM |
| O=c1[nH]c(CCN2CCCC2)nc2c1oc1ccc(Br)cc12 [Compound 105] | < 10 µM | < 10 µM |
| O=C(Nc1ccc(Cl)c(-c2nc3c(oc4ccc(Br)cc43)c(=O)[nH]2)c1)c1ccncc1 [Compound 314, N-[3-(8-bromo-4-oxo-3,4-dihydro[1]benzofuro[3,2-d]pyrimidin-2-yl)-4-chlorophenyl]pyridine-4-carboxamide] | < 10 µM | < 10 µM |
| O=c1[nH]c(Cn2ccnc2-c2ccccc2)nc2c1oc1ccc(Br)cc12 [Compound 176, 8-bromo-2-[(2-phenyl-1H-imidazol-1-yl)methyl][1]benzofuro[3,2-d]pyrimidin-4(3H)-one] | < 10 µM | < 10 µM |
| CCc1nccn1Cc1nc2c(oc3ccc(Br)cc32)c(=O)[nH]1 [Compound 149, 8-bromo-2-[(2-ethyl-1H-imidazol-1-yl)methyl][1]benzofuro[3,2-d]pyrimidin-4(3H)-one] | < 10 µM | < 10 µM |

From patent publication US20090247559A1 (Exelixis, Inc., priority 2007, published 2009)
